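A five-concentration, 48-hour dose response in 96-well plates underlies each endpoint, interpolated linearly between surrounding concentrations. TGI marks complete inhibition of growth.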
What was measured:
Test in all cases: growth of human tumour cells (NCI), 48 h
RPMI-8226 leukemia = tested on: RPMI-8226 leukemia
SF-295 CNS = tested on: SF-295 CNS
SF-539 CNS = tested on: SF-539 CNS
A549 NSCLC = tested on: A549 NSCLC
UO-31 renal = tested on: UO-31 renal
NCI-H522 lung = tested on: NCI-H522 lung
M14 melanoma = tested on: M14 melanoma
U251 CNS = tested on: U251 CNS
HCT-15 colon = tested on: HCT-15 colon
LOX IMVI melanoma = tested on: LOX IMVI melanoma
786-0 renal = tested on: 786-0 renal
SNB-19 CNS = tested on: SNB-19 CNS
UACC-62 melanoma = tested on: UACC-62 melanoma
COLO 205 colon = tested on: COLO 205 colon
SK-MEL-28 melanoma = tested on: SK-MEL-28 melanoma
SNB-75 CNS = tested on: SNB-75 CNS

Row | Compound | TGI (RPMI-8226 leukemia) [µM] | TGI (SF-295 CNS) [µM] | TGI (SF-539 CNS) [µM] | TGI (A549 NSCLC) [µM] | TGI (UO-31 renal) [µM] | TGI (NCI-H522 lung) [µM] | TGI (M14 melanoma) [µM] | TGI (U251 CNS) [µM] | TGI (HCT-15 colon) [µM] | TGI (LOX IMVI melanoma) [µM] | TGI (786-0 renal) [µM] | TGI (SNB-19 CNS) [µM] | TGI (UACC-62 melanoma) [µM] | TGI (COLO 205 colon) [µM] | TGI (SK-MEL-28 melanoma) [µM] | TGI (SNB-75 CNS) [µM]
1 | CC(=O)n1cc(CC(C)O)c(=O)[nH]c1=O (stereo not drawn) | > 100 | > 100 | > 100 | > 100 | > 100 | > 100 | > 100 | > 100 | > 100 | > 100 | > 100 | > 100 | > 100 | > 100 | > 100 | > 100
2 | NC(=O)c1ccccc1NC(=O)C(=O)Nc1n[nH]c(N)n1 | > 100 | > 100 | > 100 | > 100 | > 100 | > 100 | > 100 | > 100 | > 100 | > 100 | > 100 | > 100 | > 100 | > 100 |  | > 100
3 | CNC(=O)C1CCC(=O)N1CN(C(C)=O)c1ccccc1 (stereo not drawn) | > 100 | > 100 | > 100 | > 100 | > 100 | > 100 | > 100 | > 100 | > 100 | > 100 | > 100 | > 100 | > 100 | > 100 | > 100 | > 100
4 | CSC1=N/C(=C\c2ccccc2)C(=O)N1CN1CCOCC1 | > 100 | > 100 |  | > 100 | > 100 | > 100 | > 100 | > 100 | > 100 | > 100 | > 100 | > 100 | > 100 | > 100 | > 100 | > 100
5 | N#Cc1nc(-c2ccccc2O)oc1N | > 100 |  |  | > 100 |  |  | > 100 | > 100 | > 100 | > 100 | > 100 | > 100 | > 100 |  | > 100 | 
6 | C[N+](C)(C)CC(=O)N/N=C/c1oc(-c2cccc([N+](=O)[O-])c2)c(-c2cccc([N+](=O)[O-])c2)c1[N+](=O)[O-] | 55.3 |  | > 100 | > 100 | > 100 | > 100 | > 100 |  |  |  | > 100 | > 100 | > 100 | > 100 | > 100 | 
7 | Cc1ccccc1C(=O)NC(O)(C(F)(F)F)C(F)(F)F | > 100 | > 100 | > 100 | > 100 | > 100 | > 100 | > 100 | > 100 | > 100 | > 100 | > 100 | > 100 |  | > 100 | > 100 | 3.17
8 | O=C(Cc1nc2ccc(C(=O)c3ccccc3)cc2[nH]c1=O)C(=O)Nc1ccc(C(F)(F)F)cc1[N+](=O)[O-] | > 100 | > 100 | > 100 | > 100 | > 100 | > 100 | > 100 | > 100 | > 100 | > 100 | > 100 | > 100 | > 100 | > 100 | > 100 | > 100
9 | CN(C)C=NCc1ccc2c(c1)OCO2 | > 100 | > 100 | > 100 | > 100 | > 100 | > 100 | > 100 | > 100 | > 100 | > 100 | > 100 | > 100 | > 100 | > 100 | > 100 | > 100
10 | CC1(Br)S(=O)(=O)OCCOS1(=O)=O | > 100 | > 100 | > 100 | > 100 | > 100 | > 100 | > 100 | > 100 | > 100 | > 100 | > 100 | > 100 | > 100 | > 100 | > 100 | > 100
11 | C=CC(Br)(CBr)CCC(Br)C(C)(C)Br (stereo not drawn) | 11.9 | 16 | 29.9 | 29.8 | 28.8 | 30.1 | 28.3 | 27.6 | 31.8 | 25.5 | 25.6 |  | 24.6 | 28.8 | 29.8 | 22.3
12 | COc1ccccc1NC(=O)CC(=O)n1nc(-c2ccccc2)c(N=Nc2ccccc2[N+](=O)[O-])c1-c1ccccc1 | > 100 | > 100 | > 100 | > 100 | > 100 | > 100 | > 100 | > 100 |  | > 100 | > 100 | > 100 | > 100 | > 100 | > 100 | > 100
13 | COC(=O)CCN1CCN(CCO)CC1C (stereo not drawn) | > 10 | > 10 | > 10 | > 10 | > 10 | > 10 | > 10 | > 10 | > 10 | > 10 | > 10 | > 10 | > 10 | > 10 | > 10 | > 10
14 | Cc1ccc(SC2C(C)(C)N(C(C)C)P2(=O)N(C(C)C)C(C)C)cc1 (stereo not drawn) | 36.8 | > 100 | > 100 | > 70.8 | > 100 | > 74.2 | > 100 | > 100 | > 100 | > 59.9 | > 100 | > 100 | > 100 | > 64.1 | > 100 | > 100
15 | CCOC(=O)c1ncn2c1[nH]c(=O)c1ccccc12 | > 100 | > 100 | > 100 | > 100 | > 100 | > 100 | > 100 | > 100 | > 100 | > 100 | > 100 | > 100 | > 100 | > 100 | > 100 | > 100
16 | CCOC(=O)C(Cc1ccc2c(c1)CCC2)Cc1ccc2c(c1)CCC2 | > 100 | > 100 | > 100 | > 100 | > 100 | > 100 | > 100 | > 100 | > 100 | 47.8 | > 100 | > 100 |  |  | > 100 | > 100
17 | CC(=O)[C@H]1[C@@H](OCc2ccccc2)O[N+]([O-])=C(C)[C@@H]1c1ccccc1 | 37.9 | > 100 | 45.5 | > 100 | 40.2 | 26.4 | > 100 | > 100 | 75 | 45.7 | 31.4 | > 100 | > 100 | > 100 | 98.4 | > 100
18 | CC12OC3(C(O)C1O)C(C(=O)O[C@H]3CO[Si](C)(C)C(C)(C)C)C2S(=O)(=O)c1ccccc1 (stereo partly drawn) | 70.8 | > 100 | > 100 | > 100 | > 100 | 47.2 | > 100 | > 100 | 89.6 | 46.8 | > 100 | > 100 | 36 |  | > 100 | 90.4
19 | CC(=O)C(CN(C)Cc1ccccc1)C(c1ccccc1)c1c(O)c2ccccc2oc1=O (stereo not drawn) | > 100 | > 100 | > 100 | > 100 | 83.7 | > 100 | > 100 | > 100 | > 100 | > 100 | > 100 | 93.2 | > 100 | > 100 | > 100 | > 100
20 | OC1=CN=C(C2CC2)Oc2ccccc21 | > 100 | > 100 | > 100 | > 100 | > 100 |  | > 100 | > 100 | > 100 | > 100 | > 100 | > 100 | > 100 | > 100 | > 100 | > 100
21 | COC(=N)c1ncn(Cc2ccccc2)c1N | > 100 | > 100 | > 100 | > 100 |  | > 100 | > 100 | > 100 | > 100 | > 100 | > 100 | > 100 | > 100 | > 100 | > 100 | > 100
22 | O=S(=O)(c1ccccc1)n1cnc(CCc2ccccc2)n1 | > 100 | > 100 | > 100 | > 100 | > 100 | > 100 | > 100 | > 100 | > 100 | > 100 | > 100 |  | > 100 | > 100 | > 100 | > 100
23 | Cc1ccc(S(=O)(=O)C(C#N)c2nc3ccccc3nc2N2CCOCC2)cc1 (stereo not drawn) | 87.6 |  | > 100 | > 100 | > 100 | 37.3 | > 100 | 35.8 | > 100 | 57.3 | > 100 | 95.6 | 28.5 | > 100 | 51.9 | > 100
24 | COC(=O)NN/C=C(\C=Nc1ccccc1)[N+](=O)[O-] | > 100 |  |  | > 100 | > 100 | > 100 | > 100 | > 100 | > 100 | > 100 | > 100 | > 100 | > 100 | > 100 | > 100 | 

— PubChem BioAssay (NCI)
